Experiments:
[1] = target: T1, purified human MAP4K4 kinase domain (Homo sapiens, UniProt O95819); assay: MAP4K4 Inhibition Assay Protocol No. 1 (Caliper LabChip, moesin-derived peptide phosphorylation); format: biochemical; conditions: Assay 1; 1 nM enzyme, 10 uM ATP, 45 min
T1 construct: purified human MAP4K4 kinase domain
Method in brief: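 1 nM enzyme with 1 uM 5-carboxyfluorescein-labelled moesin peptide and 10 uM ATP in 50 mM Hepes pH 7.2, 10 mM MgCl2, 2% DMSO, 45 min at room temperature, then EDTA stop. Phosphorylated fraction of peptide measured by microfluidic mobility shift; IC50 from four-parameter fit.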

[2] = target: T1, purified human MAP4K4 kinase domain; assay: MAP4K4 Inhibition Assay Protocol No. 2 (Z'-LYTE FRET); format: biochemical; conditions: Assay 2; 1 nM enzyme, 10 uM ATP, 60 min
Description: The kinase activity of purified human MAP4K4 kinase domain was monitored using Z'-LYTE™ technology from Invitrogen to determine inhibition constants (IC50) of small molecule inhibitors. The Z'-LYTE™ biochemical assay employs a fluorescence-based, coupled-enzyme format and is based on the differential sensitivity of phosphorylated and non-phosphorylated peptides to proteolytic cleavage. In the primary reaction, the kinase transfers the gamma-phosphate of ATP to a single tyrosine, serine or threonine residue in a synthetic FRET-peptide. In the secondary reaction, a site-specific protease recognizes and cleaves non-phosphorylated FRET-peptides. Phosphorylation of FRET-peptides suppresses cleavage by the Development Reagent. Cleavage disrupts FRET between the donor (i.e., coumarin) and acceptor (i.e., fluorescein) fluorophores on the FRET-peptide, whereas uncleaved, phosphorylated FRET-peptides maintain FRET. To determine inhibition constants (IC50), compounds were serially diluted in DMSO and added to 10 uL kinase reactions containing 1 nM purified MAP4K4 enzyme, 2 uM ser/thr7 Z'-LYTE™ substrate, 10 uMATP, 50 mM Hepes (pH 7.5), 10 mM MgCl2, 1 mM EGTA, 0.01% Brij-35, and 2% DMSO. Reactions were incubated at room temperature in Corning Black 384 well plates (Corning#3573) for 60 minutes and stopped by the addition of 5 uL of Z'-LYTE™ development reagent A and incubated at room temp for 60 minutes. The plate is then analyzed on Perkin Elmer Envision by FRET mode. The high ratio of coumarin/fluorescein represents 0% phosphorylation rate while low ratio of coumarin/fluorescein represents 100% phosphorylation rate. The following equations are used to determine extent of peptide phosphorylation or inhibition: […]

T1 sequence (O95819 25-289 limits assumed): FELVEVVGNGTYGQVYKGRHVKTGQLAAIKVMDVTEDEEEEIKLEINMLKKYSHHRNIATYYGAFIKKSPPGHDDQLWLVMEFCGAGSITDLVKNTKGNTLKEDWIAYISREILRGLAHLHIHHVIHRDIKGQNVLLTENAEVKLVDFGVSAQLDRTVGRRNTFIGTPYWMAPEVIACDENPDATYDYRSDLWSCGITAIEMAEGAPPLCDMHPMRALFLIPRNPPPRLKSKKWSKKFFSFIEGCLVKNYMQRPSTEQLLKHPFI

With Nc1ncc(C(=O)N[C@H]2C[C@H](O)C2)c2ccc(-c3cccc(F)c3)nc12 [Example 14b, 8-amino-2-(3-fluorophenyl)-N-(trans-3-hydroxycyclobutyl)-1,7-naphthyridine-5-carboxamide] the IC50 [1] was 0.00419 µM and the IC50 [2] was 0.0044 µM.

CN1CC(NC(=O)c2cnc(N)c3cc(-c4cccc(F)c4)ccc23)C1 [Example 7, 1-amino-7-(3-fluorophenyl)-N-(1-methylazetidin-3-yl)isoquinoline-4-carboxamide] gave an IC50 [1] of 0.869 µM and an IC50 [2] of 0.776 µM.

CNCc1cnc(N)c2cc(-c3cccc(F)c3)ccc12 [Example 129, 7-(3-fluorophenyl)-4-(methylaminomethyl) isoquinolin-1-amine] showed an IC50 [1] of 4.1 µM and an IC50 [2] of 3 µM.

With CNC(=O)N1CC(NC(=O)c2cnc(N)c3cc(-c4cccc(F)c4)ccc23)C1 [Example 8, 1-amino-7-(3-fluorophenyl)-N-[1-(methylcarbamoyl)azetidin-3-yl]isoquinoline-4-carboxamide] the IC50 [1] was 0.0112 µM and the IC50 [2] was 0.015 µM.

In the case of CCNC(=O)N1CC(NC(=O)c2cnc(N)c3cc(-c4cccc(F)c4)ccc23)C1 [Example 131, 1-amino-N-[1-(ethylcarbamoyl)azetidin-3-yl]-7-(3-fluorophenyl) isoquinoline-4-carboxamide], the IC50 [1] was 0.168 µM and the IC50 [2] was 0.174 µM.

Nc1ncc(CNC(=O)C2CC2)c2ccc(-c3cccc(F)c3)cc12 [Example 6, N-[[1-amino-7-(3-fluorophenyl)-4-isoquinolyl]methyl]cyclopropanecarboxamide] gave an IC50 [1] of 0.0414 µM and an IC50 [2] of 0.0294 µM.

With CCNC(=O)NCC(CO)NC(=O)c1cnc(N)c2cc(-c3cccc(F)c3)ccc12 (stereo not drawn) [Example 133, 1-amino-N-[1-[(ethylcarbamoyl-amino)methyl]-2-hydroxy-ethyl]-7-(3-fluorophenyl) isoquinoline-4-carboxamide] the IC50 [1] was 0.0602 µM and the IC50 [2] was 0.0919 µM.

For CCOC(=O)c1cnc(N)c2nc(-c3cccc(F)c3)ccc12 [Example 118, ethyl 8-amino-2-(3-fluorophenyl)-1,7-naphthyridine-5-carboxylate], the IC50 [1] was 0.000464 µM and the IC50 [2] was 0.000648 µM.

Nc1ncc(C(=O)NC(CO)CNC(=O)NC2CC2)c2ccc(-c3cccc(F)c3)cc12 (stereo not drawn) [Example 130, 1-amino-N-[1-[(cyclopropyl-carbamoylamino)methyl]-2-hydroxy-ethyl]-7-(3-fluorophenyl) isoquinoline-4-carboxamide] showed an IC50 [1] of 0.0609 µM and an IC50 [2] of 0.0665 µM.

For C[C@@H](O)C(=O)N1CC(NC(=O)c2cnc(N)c3nc(-c4cccc(F)c4)ccc23)C1 [Example 24, (R)-8-amino-2-(3-fluorophenyl)-N-(1-(2-hydroxypropanoyl)azetidin-3-yl)-1,7-naphthyridine-5-carboxamide], the IC50 [2] was 0.004 µM.

In the case of CCOC(=O)c1cnc(N)c2nc(-c3cccc(C#N)c3)ccc12 [Example 147, ethyl 8-amino-2-(3-cyanophenyl)-1,7-naphthyridine-5-carboxylate], the IC50 [2] was 0.00145 µM.

For CCN1CC(NC(=O)c2cnc(N)c3cc(-c4cccc(F)c4)ccc23)C1 [Example 127, 1-amino-N-(1-ethylazetidin-3-yl)-7-(3-fluorophenyl) isoquinoline-4-carboxamide], the IC50 [1] was 1.2 µM and the IC50 [2] was 0.756 µM.

Work on CCOC(=O)c1cnc(N)c2nc(-c3ccnc(C)c3)ccc12 [Example 141, ethyl 8-amino-2-(2-methyl-4-pyridyl)-1,7-naphthyridine-5-carboxylate] yielded an IC50 [2] of 0.00339 µM.

With CCOC(=O)c1cnc(N)c2nc(-c3cccc(S(=O)(=O)N(C)C)c3)ccc12 [Example 142, ethyl 8-amino-2-[3-(dimethyl-sulfamoyl)phenyl]-1,7-naphthyridine-5-carboxylate] the IC50 [2] was 0.48 µM.

Cn1ccc(-c2cnc(N)c3cc(-c4cccc(F)c4)ccc23)n1 [Example 138, 7-(3-fluorophenyl)-4-(1-methylpyrazol-3-yl) isoquinolin-1-amine] gave an IC50 [2] of 0.0145 µM.

With Nc1ncc(C(=O)NC2CN(CC(F)(F)F)C2)c2ccc(-c3cccc(F)c3)nc12 [Example 22, 8-amino-2-(3-fluorophenyl)-N-(1-(2,2,2-trifluoroethyl)azetidin-3-yl)-1,7-naphthyridine-5-carboxamide] the IC50 [2] was 0.0244 µM.

With CCOC(=O)c1cnc(N)c2nc(-c3cccc(OC(C)C)c3)ccc12 [Example 146, ethyl 8-amino-2-(3-isopropoxy-phenyl)-1,7-naphthyridine-5-carboxylate] the IC50 [2] was 0.0326 µM.

Nc1ncc(C(=O)NC2CN(C(=O)N3CCOCC3)C2)c2ccc(-c3cccc(F)c3)nc12 [Example 27, 8-amino-2-(3-fluorophenyl)-N-(1-(morpholine-4-carbonyl)azetidin-3-yl)-1,7-naphthyridine-5-carboxamide] gave an IC50 [2] of 0.0147 µM.

Nc1ncc(C(=O)N2CC(N(C(=O)C3CC3)C(=O)C3CC3)C2)c2ccc(-c3cccc(F)c3)nc12 [Example 31, N-(1-(8-amino-2-(3-fluorophenyl)-1,7-naphthyridine-5-carbonyl)azetidin-3-yl)-N-(cyclopropanecarbonyl)cyclopropanecarboxamide] showed an IC50 [2] of 0.284 µM.

COCC(=O)N1CC(NC(=O)c2cnc(N)c3cc(-c4cccc(F)c4)ccc23)C1 [Example 128, 1-amino-7-(3-fluorophenyl)-N-[1-(2-methoxyacetyl)azetidin-3-yl]isoquinoline-4-carboxamide] gave an IC50 [1] of 0.0705 µM and an IC50 [2] of 0.0724 µM.

Work on CCC(=O)N1CC(NC(=O)c2cnc(N)c3nc(-c4cccc(F)c4)ccc23)C1 [Example 35, 8-amino-2-(3-fluorophenyl)-N-(1-propionylazetidin-3-yl)-1,7-naphthyridine-5-carboxamide] yielded an IC50 [2] of 0.00378 µM.

Compound Nc1ncc(-c2ncco2)c2ccc(-c3cccc(F)c3)cc12 [Example 11, 7-(3-fluorophenyl)-4-oxazol-2-yl-isoquinolin-1-amine] has an IC50 [2] of 0.00873 µM.

COCC(=O)N1CC(NC(=O)c2cnc(N)c3nc(-c4cccc(F)c4)ccc23)C1 [Example 39, 8-amino-2-(3-fluorophenyl)-N-(1-(2-methoxyacetyl)azetidin-3-yl)-1,7-naphthyridine-5-carboxamide] gave an IC50 [2] of 0.0044 µM.

C[C@H](O)C(=O)N1CC(NC(=O)c2cnc(N)c3nc(-c4cccc(F)c4)ccc23)C1 [Example 25, (S)-8-amino-2-(3-fluorophenyl)-N-(1-(2-hydroxypropanoyl)azetidin-3-yl)-1,7-naphthyridine-5-carboxamide] showed an IC50 [2] of 0.00918 µM.

Work on CCOC(=O)c1cnc(N)c2nc(-c3ccc(OC)cc3Cl)ccc12 [Example 155, ethyl 8-amino-2-(2-chloro-4-methoxy-phenyl)-1,7-naphthyridine-5-carboxylate] yielded an IC50 [2] of 0.134 µM.

For Nc1ncc(C(=O)NC2CN(C(=O)NC3CC3)C2)c2ccc(-c3cccc(F)c3)cc12 [Example 132, 1-amino-N-[1-(cyclopropyl-carbamoyl)azetidin-3-yl]-7-(3-fluorophenyl)isoquinoline-4-carboxamide], the IC50 [1] was 0.18 µM and the IC50 [2] was 0.191 µM.

In the case of Nc1ncc(C(=O)NC2CN(C(=O)C3CC3)C2)c2ccc(-c3ccnc(F)c3)nc12 [Example 44, 8-amino-N-(1-(cyclopropanecarbonyl)azetidin-3-yl)-2-(2-fluoropyridin-4-yl)-1,7-naphthyridine-5-Carboxamide], the IC50 [2] was 0.00263 µM.

Source: patent publication US9586956B2, “Isoquinoline and naphthyridine derivatives” (Genentech, Inc., priority 2012, dated 2017)
